Test results published in patent US9695155B2, “Herbicidal substituted pyrimidinyloxy benzene compounds” (E. I. DU PONT DE NEMOURS AND COMPANY, priority 2013, dated 2017).

How the values were obtained:
barnyardgrass = assay: Test B flooded paddy test; type: in vivo, Echinochloa crus-galli; settings: Flood, 250 g ai/ha; 0 to 100 scale where 0 is no effect and 100 is complete control
Summary of the method: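 Scores from 0 (no effect) to 100 (complete control) are visual comparisons with controls, taken 13 to 15 days after compound was applied into floodwater 3 cm deep around 2-leaf plants.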

oilseed rape = assay: Test C postemergence; type: in vivo, Brassica napus; settings: for Plant response rating (0 to 100), Oilseed Rape: 16 g ai/ha, 0 is no effect, 100 is complete control; for Oilseed Rape plant response rating: 31 g ai/ha, 13 to 15 days; for Oilseed Rape plant response rating / Plant response rating, Oilseed Rape: scale 0 to 100 (0 no effect, 100 complete control)
Description: (§1) Seeds of plant species selected from blackgrass (Alopecurus myosuroides), Italian ryegrass (Lolium multiflorum), wheat, winter (winter wheat, Triticum aestivum), galium (catchweed bedstraw, Galium aparine), corn (Zea mays), large (Lg) crabgrass (Digitaria sanguinalis), giant foxtail (Setaria faberii), johnsongrass (Sorghum halepense), lambsquarters (Chenopodium album), morningglory (Ipomoea coccinea), yellow nutsedge (Cyperus esculentus), pigweed (Amaranthus retroflexus), ragweed (common ragweed, Ambrosia elatior), soybean (Glycine max), barnyardgrass (Echinochloa crus-galli), oilseed rape (Brassica napus), waterhemp (common waterhemp, Amaranthus rudis), kochia (Kochia scoparia), wild oat (Avena fatua), surinam grass (Brachiaria decumbens), foxtail, green (green foxtail, Setaria viridis), goosegrass (Eleusine indica), bromegrass, downy (downy bromegrass, Bromus tectorum), nightshade (eastern black nightshade, Solanum ptycanthum), cocklebur (common cocklebur, Xanthium strumarium), cupgrass, woolly (woolly cupgrass, Eriochloa villosa), bermudagrass (Cynodon dactylon), sunflower, (common oilseed sunflower, Helianthus annuus), Russian thistle (Salsola kali), and velvetleaf (Abutilon theophrasti) were planted into a blend of loam soil and sand and treated preemergence with test chemicals formulated in a non-phytotoxic solvent mixture which included a surfactant.
(§2) At the same time, plants selected from these crop and weed species and also barley, winter (winter barley, Hordeum vulgare), windgrass (Apera spica-venti), chickweed (common chickweed, Stellaria media), deadnettle (henbit deadnettle, Lamium amplexicaule), and canarygrass (littleseed canarygrass, Phalaris minor) were planted in pots containing Redi-Earth® planting medium (Scotts Company, 14111 Scottslawn Road, Marysville, Ohio 43041) comprising spaghnum peat moss, vermiculite, wetting agent and starter nutrients and treated with postemergence applications of test chemicals formulated in the same manner. Plants ranged in height from 2 to 18 cm (1- to 4-leaf stage) for postemergence treatments. Treated plants and controls were maintained in a greenhouse for 13 to 15 days, after which time all species were compared to controls and visually evaluated. Plant response ratings, summarized in Table C, are based on a scale of 0 to 100 where 0 is no effect and 100 is complete control. A dash (-) response means no test result.

ragweed = assay: Test C postemergence; type: in vivo, Ambrosia elatior; settings: for Plant response rating (0 to 100), Ragweed: 16 g ai/ha, 0 is no effect, 100 is complete control; for Ragweed plant response rating: 31 g ai/ha, 13 to 15 days; for Ragweed plant response rating / Plant response rating, Ragweed: scale 0 to 100 (0 no effect, 100 complete control)
Description: as §1, §2

velvetleaf = assay: Test A postemergence; type: in vivo, Abutilon theophrasti; settings: 0 to 100 scale where 0 is no effect and 100 is complete control; for Velvetleaf plant response rating: 125 g ai/ha; for Plant response rating, Velvetleaf: 500 g ai/ha
Summary of the method: (§3)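 Injury scores run from 0, no effect, to 100, complete control, judged by eye against untreated plants roughly 10 days after treatment. Chemicals carried a surfactant in a non-phytotoxic solvent and went onto loam–sand soil preemergence or onto one- to two-leaf seedlings postemergence.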

soybean = assay: Test C postemergence; type: in vivo, Glycine max; settings: for Plant response rating (0 to 100), Soybean: 16 g ai/ha, 0 is no effect, 100 is complete control; for Soybean plant response rating: 31 g ai/ha, 13 to 15 days; for Soybean plant response rating / Plant response rating, Soybean: scale 0 to 100 (0 no effect, 100 complete control)
Description: as §1, §2

morningglory = assay: Test C postemergence; type: in vivo, Ipomoea coccinea; settings: for Plant response rating (0 to 100), Morningglory: 16 g ai/ha, 0 is no effect, 100 is complete control; for Morningglory plant response rating: 31 g ai/ha, 13 to 15 days; for Morningglory plant response rating / Plant response rating, Morningglory: scale 0 to 100 (0 no effect, 100 complete control)
Summary of the method: (§4)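 Injury was assessed visually against controls 13 to 15 days after application, with 0 meaning no effect and 100 full control; missing entries are shown as a dash. Preemergence sprays hit seeded loam–sand soil, postemergence sprays hit 1- to 4-leaf plants.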

large (Lg) crabgrass = assay: Test A postemergence; type: in vivo, Digitaria sanguinalis; settings: 0 to 100 scale where 0 is no effect and 100 is complete control; for Crabgrass, Large plant response rating: 125 g ai/ha; for Plant response rating, Crabgrass, Large: 500 g ai/ha
Summary of the method: as §3

lambsquarters = assay: Test C postemergence; type: in vivo, Chenopodium album; settings: for Plant response rating (0 to 100), Lambsquarters: 16 g ai/ha, 0 is no effect, 100 is complete control; for Lambsquarters plant response rating: 31 g ai/ha, 13 to 15 days; for Lambsquarters plant response rating / Plant response rating, Lambsquarters: scale 0 to 100 (0 no effect, 100 complete control)
Summary of the method: as §4

wheat, winter = assay: Test C postemergence; type: in vivo, Triticum aestivum; settings: for Plant response rating (0 to 100), Wheat: 16 g ai/ha, 0 is no effect, 100 is complete control; for Wheat plant response rating: 31 g ai/ha, 13 to 15 days; for Wheat plant response rating / Plant response rating, Wheat: scale 0 to 100 (0 no effect, 100 complete control)
Description: as §1, §2

[1] = 125 g ai/ha, postemergence, visual rating

| Structure (SMILES) | Plant response rating, Barnyardgrass (barnyardgrass) | Plant response rating (0 to 100), Oilseed Rape (oilseed rape; postemergence) | Oilseed Rape plant response rating (oilseed rape; postemergence, visual rating) | Plant response rating, Oilseed Rape (oilseed rape; [1]) | Plant response rating, Oilseed Rape (oilseed rape; Postemergence, 62 g ai/ha) | Plant response rating (0 to 100), Ragweed (ragweed; postemergence) | Ragweed plant response rating (ragweed; postemergence, visual rating) | Plant response rating, Ragweed (ragweed; [1]) | Plant response rating, Ragweed (ragweed; Postemergence, 62 g ai/ha) | Velvetleaf plant response rating (velvetleaf) | Plant response rating, Velvetleaf (velvetleaf) | Plant response rating (0 to 100), Soybean (soybean; postemergence) | Soybean plant response rating (soybean; postemergence, visual rating) | Plant response rating, Soybean (soybean; [1]) | Plant response rating, Soybean (soybean; Postemergence, 62 g ai/ha) | Plant response rating (0 to 100), Morningglory (morningglory; postemergence) | Morningglory plant response rating (morningglory; postemergence, visual rating) | Plant response rating, Morningglory (morningglory; [1]) | Plant response rating, Morningglory (morningglory; Postemergence, 62 g ai/ha) | Crabgrass, Large plant response rating (large (Lg) crabgrass) | also measured |
| --- | --- | --- | --- | --- | --- | --- | --- | --- | --- | --- | --- | --- | --- | --- | --- | --- | --- | --- | --- | --- | --- |
| Fc1cccc(Oc2ncc(Cl)cn2)c1-n1cc(Cl)cn1 [Compound 177] | 30 | 60 | 80 | 90 | 90 | 10 | 15 | 60 | 55 | 100 | 100 | 45 | 65 | 95 | 85 | 20 | 10 | 85 | 80 | 80 | Plant response rating, Crabgrass, Large (large (Lg) crabgrass): 100; Plant response rating (0 to 100), Lambsquarters (lambsquarters; postemergence): 60; Lambsquarters plant response rating (lambsquarters; postemergence, visual rating): 65; Plant response rating, Lambsquarters (lambsquarters; [1]): 90; Plant response rating, Lambsquarters (lambsquarters; Postemergence, 62 g ai/ha): 75; Plant response rating (0 to 100), Wheat (wheat, winter; postemergence): 0; Wheat plant response rating (wheat, winter; postemergence, visual rating): 0; Plant response rating, Wheat (wheat, winter; [1]): 5; Plant response rating, Wheat (wheat, winter; Postemergence, 62 g ai/ha): 0 |
| Clc1cnc(Oc2cccc(Cl)c2-n2cc(I)cn2)nc1 [Compound 181] | 0 | 55 | 60 | 100 | 60 | 5 | 35 | 45 | 30 | 100 | 100 | 35 | 50 | 95 | 50 | 15 | 20 | 98 | 75 | 70 | Plant response rating, Crabgrass, Large (large (Lg) crabgrass): 90; Plant response rating (0 to 100), Lambsquarters (lambsquarters; postemergence): 75; Lambsquarters plant response rating (lambsquarters; postemergence, visual rating): 100; Plant response rating, Lambsquarters (lambsquarters; [1]): 100; Plant response rating, Lambsquarters (lambsquarters; Postemergence, 62 g ai/ha): 100; Plant response rating (0 to 100), Wheat (wheat, winter; postemergence): 0; Wheat plant response rating (wheat, winter; postemergence, visual rating): 0; Plant response rating, Wheat (wheat, winter; [1]): 5; Plant response rating, Wheat (wheat, winter; Postemergence, 62 g ai/ha): 0 |
| FC(F)(F)c1cnn(-c2c(Br)cccc2Oc2ncc(Cl)cn2)c1 [Compound 191] | 40 | 10 | 45 | 50 | 50 | 5 | 20 | 35 | 30 | 90 | 100 | 40 | 55 | 30 | 60 | 40 | 85 | 50 | 85 | 50 | Plant response rating, Crabgrass, Large (large (Lg) crabgrass): 90; Plant response rating (0 to 100), Lambsquarters (lambsquarters; postemergence): 85; Lambsquarters plant response rating (lambsquarters; postemergence, visual rating): 60; Plant response rating, Lambsquarters (lambsquarters; [1]): 95; Plant response rating, Lambsquarters (lambsquarters; Postemergence, 62 g ai/ha): 75; Plant response rating (0 to 100), Wheat (wheat, winter; postemergence): 0; Wheat plant response rating (wheat, winter; postemergence, visual rating): 0; Plant response rating, Wheat (wheat, winter; [1]): 0; Plant response rating, Wheat (wheat, winter; Postemergence, 62 g ai/ha): 0 |
